Laboratory results reported in patent US7998976B2, “Certain chemical entities, compositions and methods” (Cytokinetics, Inc., priority 2008, dated 2011).

Each molecule was assayed on skeletal sarcomere (skeletal myosin with actin, tropomyosin, and troponin complex) (assay: Screen of ATP hydrolysis rate of myosin with calcium-regulated actin filament (actin/tropomyosin/troponin), PK/LDH/NADH coupled enzyme system). Conditions: screen conducted at pCa=6.5; unit not given.
Type: biochemical
Description: For example, test compounds can be assayed in a highly parallel fashion by using multiwell plates by placing the compounds either individually in wells or testing them in mixtures. Assay components including the target protein complex, coupling enzymes and substrates, and ATP can then be added to the wells and the absorbance or fluorescence of each well of the plate can be measured with a plate reader.
In some embodiments, the method uses a 384 well plate format and a 25 μL reaction volume. A pyruvate kinase/lactate dehydrogenase coupled enzyme system (Huang T G and Hackney D D. (1994) J Biol Chem 269(23):16493-501) can be used to measure the rate of ATP hydrolysis in each Well. As will be appreciated by those in the art, the assay components are added in buffers and reagents. The incubation periods can be optimized to give adequate detection signals over the background. The assay can be done in real time giving the kinetics of ATP hydrolysis which increases the signal to noise ratio of the assay.
Actin was purified by first preparing an ether powder of cardiac muscle (Zot H G and Potter J D. (1981) Preparative Biochemistry 11:381-395) as described below. Subsequently, actin was cycled between the filamentous and soluble state through rounds of centrifugation and dialysis (Spudich J A and Watt S. (1971) J. Biol. Chem. 246:4866-4871). It was stored in the filamentous state at 4° C.
Tropomyosin was extracted from the ether powder and separated from the other proteins based on pH dependent precipitations followed by successive ammonium sulfate cuts at 53% and 65% (Smillie L B. (1981) Methods Enzymol 85 Pt B:234-41). The troponins were isolated as an intact complex of TnC, TnT, and TnI. Ether powder is extracted in a high salt buffer. Successive ammonium sulfate cuts of 30% and 45% were done; the precipitate was solubilized by dialysis into a low salt buffer and then further purified on a DEAE Toyopearl column with a 25-350 mM KCl gradient.
Just prior to screening, the actin, tropomyosin, and troponin complex are mixed together in the desired ratio (e.g., 7:1:1) to achieve maximal calcium regulation of the actin filament. The screen is conducted at a pCa=6.5. This calcium concentration is in the physiological range during muscle contraction.
To measure the generation of ADP during the reaction, a pyruvate kinase/lactate dehydrogenase/NADH coupled enzyme system (PK/LDH) is added to the actin. The myosin is kept separately. The plates are read in real time so that kinetic curves are obtained. These compounds are in DMSO and were already spotted onto the bottoms of 384 well plates at 10 to 40 μg/ml final concentration.
• 1. Obtain ˜1000 g skeletal muscle, such as rabbit skeletal muscle. • 2. Grind twice; extract with 2 L solution A for 15 min while stirring; add 4 L cold H2O, filter through gauze; dilute with cold H2O to ionic strength of 0.04, (about 10-fold); let settle for 3 h; collect precipitate at 7,000 rpm in GSA rotor for 15 min. • 3. Disperse pellet in 220 ml solution B; dialyze overnight against 6 L solution C; slowly add ˜400 ml equal volume cold distilled H2O; stir for 30 min; centrifuge at 10,000 rpm for 10 min in GSA rotor. • 4. Centrifuge supernatant at 19,000 rpm for 1 h. • 5. Dilute supernatant to ionic strength of 0.04 (˜8-fold); let myosin settle overnight; collect about 5-6 L fluffy myosin precipitate by centrifuging at 10,000 rpm for 10 min in GSA rotor. • 6. Resuspend pellet in minimal volume of solution G; dialyze overnight against 2 L solution D; centrifuge at 19,000 rpm for 2 h, in cellulose nitrate tubes; puncture tubes and separate myosin from fat and insoluble pellet. • 7. Dilute supernatant to 5-10 mg/ml and dialyze against solution E extensively, load onto DEAE-sephadex column. • 8. […]

First: 3-(ethylpropyl)-5-ethynylimidazo[5,4-b]pyridin-2-ol
Second: 3-(ethylpropyl)-5-methylimidazo[5,4-b]pyridin-2-ol
The “AC1.4 Median” value of the first is lower: 2.366 for the first, 43.299 for the second.

First: 3-(ethylpropyl)-5-vinylimidazo[5,4-b]pyridin-2-ol
Second: 5-(dimethylamino)-3-(ethylpropyl)imidazo[5,4-b]pyridin-2-ol
The “AC1.4 Median” value of the first is higher: 3.836 for the first, 2.611 for the second.

Compared with `C/C=C\c1ccc2nc(O)n(C(CC)CC)c2n1` [5-((1Z)prop-1-enyl)-3-(ethylpropyl)imidazo[5,4-b]pyridin-2-ol], `CCC(CC)n1c(O)nc2ccc(Br)nc21` [5-bromo-3-(ethylpropyl)imidazo[5,4-b]pyridin-2-ol] is higher in “AC1.4 Median” value: 0.840 for the first, 8.050 for the second.

In the case of `CCC(CC)n1c(O)nc2ccc(Cl)nc21` [5-chloro-3-(ethylpropyl)imidazo[5,4-b]pyridin-2-ol], the “AC1.4 Median” value is reported as 21.134.
